# Test results taken from US7897614B2, “Preventive agent/remedial agent for constipation predominant IBS” (Mitsubishi Tanabe Pharma Corporation, priority 2001, dated 2011).
# Entries after “also recorded” stand apart in the source; their conditions may differ.
# Tests used:
# [1] = tested on: patients suffering from constipation predominant IBS; assay: Double blind clinical test in patients with constipation predominant IBS (Rome II criteria); type: in vivo, human
# Excerpt: Clinical effects of the medicament of the present invention on patients suffering from constipation predominant IBS were studied (in accordance with Rome II diagnosis criteria).
# The test conducted here was a double blind test by two groups. […] Administration period consisted of 2-week screening and 4 week treatment. […] In addition, an ameliorating ratio of each symptom, that is, stool state, difficulty in defecation, feeling of residual stool after defecation, abdominal bloating, abdominal discomfort and abdominal pain is shown in FIG. 1
# IBS patients = conditions: score 2 = marginal improvement, 3 = small improvement; Br J Pharm Pract 1987; cited from earlier work
# [2] = 0.2 mg twice a day, 4 week treatment, 9 patients in the group
Compound,"Ameliorating ratio of each symptom (stool state, difficulty in defecation, residual stool feeling, abdominal bloating, discomfort, pain), FIG. 1 ([1]; 0.2 mg group compared with placebo group)","Total impression of the patients: Aggravated (number of patients) [1, 2]","Total impression of the patients: Highly effective (number of patients) [1, 2]","Total impression of the patients: Moderately effective (number of patients) [1, 2]","Total impression of the patients: Not effective (number of patients) [1, 2]","Total impression of the patients: Slightly effective (number of patients) [1, 2]","Effectiveness relative to the placebo group ([1]; 0.2 mg twice a day, 4 weeks)","Ratio of effectiveness (total percentage of highly effective and moderately effective cases) ([1]; 0.2 mg twice a day, 4 weeks, placebo group 30%) [%]",Mean subjective score (IBS patients)
"O=C(N[C@H]1CN2CCC1CC2)c1cnc2ccsc2c1O [the medicament of the present invention, (R)-N-(1-azabicyclo[2.2.2]oct-3-yl)-7-hydroxythieno[3,2-b]-pyridine-6-carboxamide]",exhibited an ameliorating ratio exceeding the placebo group in any symptoms,0,0,5,2,2,about twice; also recorded: about two fold,56,
sennoside,,,,,,,,,2.7
